Measured values taken from article PMC12041765, “The development of a high-throughput acoustic droplet ejection mass-spectrometry assay and a solid-supported membrane (SSM)-based electrophysiological assay to study the pharmacological inhibition of SLC1-A3, -A2 and -A1 in a drug discovery program” (Frontiers in Pharmacology, 2025).
Read-outs that look alike come from different tables or passages of the source.

Tests used:
[1] = target: T1, SLC1A2 (EAAT2) (Homo sapiens, UniProt P43004); test: SSM-based electrophysiology (SURFE2R 96 SE), EAAT2 membrane fragments; assay type: biochemical; conditions: glutamic acid up to 500 µM, membrane 4 µg/well, read-out: SURFE^2R Km
T1 construct: host or cells: HEK293-JumpIn, doxycycline-induced

[2] = tested on: EAAT2; set-up: method as in Arriza et al. (1994); conditions: radio-labeled uptake, COS7 cells, ref Arriza et al. (1994); cited from earlier work
[3] = tested on: EAAT2; set-up: method as in Arriza et al. (1994); conditions: oocytes, Voltage-Clamp, ref Arriza et al. (1994); cited from earlier work
[4] = tested on: EAAT2; conditions: cited from earlier work
[5] = tested on: EAAT3; conditions: cited from earlier work
[6] = tested on: EAAT1; conditions: radio-labeled uptake, COS7 cells, ref Arriza et al. (1994); cited from earlier work
[7] = tested on: EAAT3; conditions: radio-labeled uptake, COS7 cells, ref Arriza et al. (1994); cited from earlier work
[8] = tested on: EAAT1; conditions: oocytes, Voltage-Clamp, ref Arriza et al. (1994); cited from earlier work
[9] = tested on: EAAT3; conditions: oocytes, Voltage-Clamp, ref Arriza et al. (1994); cited from earlier work
[10] = tested on: EAAT1; conditions: glutamic acid uptake assay, ref Vallejo-Illarramendi et al. (2005); cited from earlier work
[11] = tested on: EAAT1; conditions: cited from earlier work
[12] = FLIPR membrane potential assay, ref Faure et al. (2006)
[13] = similar methodologies (FLIPR), ref Alaux et al. (2005)

T1 sequence (P43004 whole entry, the tested form may be a part): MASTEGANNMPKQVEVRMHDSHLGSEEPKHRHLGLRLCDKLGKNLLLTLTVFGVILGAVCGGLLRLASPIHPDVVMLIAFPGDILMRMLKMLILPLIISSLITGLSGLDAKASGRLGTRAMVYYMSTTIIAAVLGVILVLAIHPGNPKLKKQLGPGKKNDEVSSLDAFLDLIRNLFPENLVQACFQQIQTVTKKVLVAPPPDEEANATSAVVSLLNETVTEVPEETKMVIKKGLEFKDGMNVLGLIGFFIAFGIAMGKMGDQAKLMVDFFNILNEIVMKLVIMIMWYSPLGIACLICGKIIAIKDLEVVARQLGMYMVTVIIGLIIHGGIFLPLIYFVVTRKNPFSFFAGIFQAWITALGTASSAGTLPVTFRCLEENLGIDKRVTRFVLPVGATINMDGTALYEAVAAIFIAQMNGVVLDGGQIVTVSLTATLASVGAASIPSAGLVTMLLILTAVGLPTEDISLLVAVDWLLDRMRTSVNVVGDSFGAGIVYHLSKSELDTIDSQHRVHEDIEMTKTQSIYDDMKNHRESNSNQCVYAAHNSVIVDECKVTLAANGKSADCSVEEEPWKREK

For `N[C@@H](CCC(=O)O)C(=O)O` [glutamic acid, L-glutamic acid], the Km [1] is given as 9.5 µM, the Km [2] is given as 97 ± 4 µM and the Km [3] is given as 18 ± 3 µM. For the same molecule, the Km [4, 12] was 21 µM, the Km [4, 13] was 21 µM and the Km [5, 12] was 9.9 µM. For the same molecule, the Km [5, 13] was 25 µM, the Km [6] was 48 ± 10 µM and the Km [7] was 62 ± 8 µM. The Km [8] was 20 ± 3 µM, the Km [9] was 28 ± 6 µM and the Km [10] was 27.5 ± 2.3 µM. The Km [11, 12] was 7.9 µM and the Km [11, 13] was 9.2 µM.
